Read-outs that look alike come from different tables or passages of the source.
Target: recombinant SARS-CoV-2 M^pro (Severe acute respiratory syndrome coronavirus 2 (2019-nCoV) (SARS-CoV-2), UniProt P0DTD1)
Assay: Inhibition of SARS-CoV-2 M^pro enzyme activity (fluorescent substrate assay)
Format: biochemical
Details: inhibition of SARS-CoV-2 M^pro enzyme activity, read-out: IC50

Row | SMILES | IC50 (values in nM) | IC50 (values given in μM)
1 | O=C(NCc1ccccn1)C(=O)[C@@H](Cc1ccccc1)NC(=O)C1(NC(=O)C23CC4(F)CC(F)(CC(F)(C4)C2)C3)CCC1 [Compound 203] | 19.6 ± 0.6 nM | 
2 | O=C(CN1C(=O)CN(c2ccc(F)c(Cl)c2)C1=O)N[C@H](Cc1ccccc1)C(=O)C(=O)NCc1nccs1 [Compound 519] | 32.7 ± 3.1 nM | 
3 | C[C@@H](NC(=O)c1cc(OC(F)(F)F)ccc1F)C(=O)N[C@H](Cc1ccccc1)C(=O)C(=O)NCc1nccs1 [Compound 385] | 55.8 ± 7.2 nM | 
4 | C[C@@H](NC(=O)C1CC12CCC(F)(F)CC2)C(=O)N[C@H](Cc1ccccc1)C(=O)C(=O)NCc1nccs1 (some centres unmarked) [Compound 372] | 10.6 ± 0.4 nM | 
5 | O=C(NCc1ncno1)C(=O)[C@@H](Cc1ccccc1)NC(=O)c1ccccc1 [Compound 461] |  | 62300 ± 2070 nM
6 | Cc1cccnc1CNC(=O)C(=O)[C@@H](Cc1ccccc1)NC(=O)[C@@H](C)NC(=O)C1CCC(F)(F)CC1 [Compound 340] | 76.2 ± 1.7 nM | 
7 | O=C(Cn1cc(C2CCC(F)(F)CC2)c(C(F)(F)F)n1)N[C@H](Cc1ccccc1)C(=O)C(=O)NCc1nccs1 [Compound 510] | 137 ± 1.6 nM | 
8 | Cc1ccc(CO[C@H](C)C(=O)N[C@H](Cc2ccccc2)C(=O)C(=O)NCc2ccccn2)cc1 [Compound 14] | 19.3 ± 2.8 nM | 
9 | O=C(Cn1cc(-c2ccccc2F)nn1)N[C@H](Cc1ccccc1)C(=O)C(=O)NCc1nccs1 [Compound 532, (R)-3-(2-(4-(2-fluorophenyl)-1H-1,2,3-triazol-1-yl)acetamido)-2-oxo-4-phenyl-N-(thiazole-2-ylmethyl)butyramide] | 624.5 ± 2.6 nM | 
10 | C[C@@H](NC(=O)[C@@H](NC(=O)NC1(CS(=O)(=O)C(C)(C)C)CCCCC1)C(C)(C)C)C(=O)N[C@H](Cc1ccccc1)C(=O)C(=O)NCc1ccccn1 [Compound 113] | 69.1 ± 8.1 nM | 
11 | O=C(NCc1cscn1)C(=O)[C@@H](Cc1ccccc1)NC(=O)[C@H]1COCCN1C(=O)CC1CC(F)(F)C1 [Compound 436] | 171 ± 2.4 nM | 
12 | O=C(CCC1CCC(F)(F)CC1)NC1(C(=O)N[C@H](Cc2ccccc2)C(=O)C(=O)NCc2ccccn2)CC1 [Compound 157] | 12.5 ± 0.5 nM | 
13 | CN(C(=O)C1CCC(F)(F)CC1)C1(C(=O)N[C@H](Cc2ccccc2)C(=O)C(=O)NCc2ccccn2)CC1 [Compound 167] |  | 3810 ± 170 nM
14 | O=C(NCc1nccs1)C(=O)[C@@H](Cc1ccccc1)NC(=O)C1(NC(=O)C2CCCC(F)(F)C2)CC(F)(F)C1 (some centres unmarked) [Compound 545] | 26.9 ± 0.2 nM | 
15 | O=C(CC12CC3CC(CC(C3)C1)C2)NC1(C(=O)N[C@H](Cc2ccccc2)C(=O)C(=O)NCc2ccccn2)CCC1 [Compound 196] | 14.5 ± 0.1 nM | 
16 | C[C@@H](NC(=O)c1cc(F)cc(Cl)c1)C(=O)N[C@H](Cc1ccccc1)C(=O)C(=O)NCc1ccccn1 [Compound 101] | 21.6 ± 0.8 nM | 
17 | COC[C@@H](NC(=O)C1CCCC(F)(F)C1)C(=O)N[C@H](Cc1ccccc1)C(=O)C(=O)NCc1ncno1 (some centres unmarked) [Compound 563] |  | > 2500 nM
18 | O=C(NC1(C(=O)N[C@H](Cc2ccccc2)C(=O)C(=O)NCc2ccccn2)CCC1)OC1CCC(F)(F)CC1 [Compound 314] | 12.4 ± 0.3 nM | 
19 | COc1ccnc(CNC(=O)C(=O)[C@@H](Cc2ccccc2)NC(=O)[C@@H](C)NC(=O)C2CCC(F)(F)CC2)c1 [Compound 342] | 22.2 ± 0.2 nM | 
20 | C[C@@H](NC(=O)c1ccc(Cl)cc1F)C(=O)N[C@H](Cc1ccccc1)C(=O)C(=O)NCc1ccccn1 [Compound 100] | 13 ± 1.4 nM | 
21 | COc1ccccc1OCC(=O)N[C@H](C)C(=O)N[C@H](Cc1ccccc1)C(=O)C(=O)NCc1ccccn1 [Compound 89] | 40.9 ± 1.2 nM | 

Row | SMILES | IC50 (values in nM) | IC50 (values given in μM)
22 | O=C(NCc1nccs1)C(=O)[C@@H](Cc1ccccc1)NC(=O)C1(NC(=O)C2CCC(F)(F)CC2)CCC1 [Compound 539] | 21.8 ± 0.5 nM | 
23 | CC(C)(C)C(NC(=O)c1ccc(F)cc1)C(=O)N[C@H](Cc1ccccc1)C(=O)C(=O)NCc1ccccn1 (some centres unmarked) [Compound 252] | 94.9 ± 2.7 nM | 
24 | CC(C)(C(=O)N[C@H](Cc1ccccc1)C(=O)C(=O)NCc1nccs1)n1cc(-c2cccc(F)c2)cn1 [Compound 528] | 50.8 ± 1 nM | 
25 | C[C@@H](OCc1ccccc1)C(=O)N[C@H](Cc1ccccc1)C(=O)C(=O)NCc1ccccn1 [Compound 1, (R)-3-((R)-2-(benzyloxy)propionamido)-2-oxo-4-phenyl-N-(pyridin-2-ylmethyl)butyramide] | 14.6 ± 1.3 nM | 
26 | O=C(NCc1ccccn1)C(=O)[C@@H](Cc1ccccc1)NC(=O)[C@H](NC(=O)C1CCC(F)(F)CC1)C1CCOCC1 [Compound 230] | 64.5 ± 0.7 nM | 
27 | O=C(NCc1nccs1)C(=O)[C@@H](Cc1ccccc1)NC(=O)[C@H]1COCCN1C(=O)CC1CC1(F)F (some centres unmarked) [Compound 413] | 29.1 ± 2.5 nM | 
28 | O=C(NCc1nccs1)C(=O)[C@@H](Cc1ccccc1)NC(=O)c1ccccc1F [Compound 471] | 264 ± 4 nM | 
29 | O=C(NCc1ccccn1)C(=O)[C@@H](Cc1ccccc1)NC(=O)[C@H]1CC2CCCCC2N1C(=O)NCC1CC(F)(F)C1 (some centres unmarked) [Compound 308] | 13.9 ± 1.2 nM | 
30 | O=C(NCc1ccccn1)C(=O)[C@@H](Cc1ccccc1)NC(=O)[C@@H]1COCCN1C(=O)CC1CCC(F)(F)CC1 [Compound 292] | 11.4 ± 0.2 nM | 
31 | C[C@@H](NC(=O)N1CCC(C(F)(F)F)CC1)C(=O)N[C@H](Cc1ccccc1)C(=O)C(=O)NCc1ccccn1 [Compound 297] | 18.1 ± 0.3 nM | 
32 | CC(C)(C(=O)N[C@H](Cc1ccccc1)C(=O)C(=O)NCc1ccccn1)n1cc(-c2ccccc2F)cn1 [Compound 328] | 31.7 ± 0.1 nM | 
33 | C[C@H](NC(=O)C1CCC(F)(F)CC1)C(=O)N[C@H](Cc1ccccc1)C(=O)C(=O)NCc1ccccn1 [Compound 452] | 66.2 ± 0.9 nM | 
34 | C[C@@H](NC(=O)Cc1ccc(C(F)(F)F)cc1)C(=O)N[C@H](Cc1ccccc1)C(=O)C(=O)NCc1ccccn1 [Compound 78] | 53.2 ± 0.5 nM | 
35 | Cc1nc(CNC(=O)C(=O)[C@@H](Cc2ccccc2)NC(=O)[C@@H](C)NC(=O)C2CCC(F)(F)CC2)cs1 [Compound 351] |  | 1160 ± 320 nM
36 | CC(C)[C@@H](OCc1ccc(F)cc1)C(=O)N[C@H](Cc1ccccc1)C(=O)C(=O)NCc1ccc(Cl)cn1 [Compound 49] | 14.7 ± 0.4 nM | 
37 | C[C@@H](NC(=O)COc1ccc(F)cc1)C(=O)N[C@H](Cc1ccccc1)C(=O)C(=O)NCc1ccccn1 [Compound 148] | 11.7 ± 2.4 nM | 
38 | COC[C@@H](NC(=O)C1CCC(F)(F)CC1)C(=O)N[C@H](Cc1ccccc1)C(=O)C(=O)NCc1nccs1 [Compound 393] | 88.2 ± 5.6 nM | 
39 | O=C(O)C[C@@H](NC(=O)CC1CC(F)(F)C1)C(=O)N[C@H](Cc1ccccc1)C(=O)C(=O)NCc1nccs1 [Compound 572] | 33.8 ± 2.5 nM | 
40 | C[C@@H](NC(=O)[C@@H]1C[C@@H]2[C@H](C1)C2(F)F)C(=O)N[C@H](Cc1ccccc1)C(=O)C(=O)NCc1nccs1 [Compound 377] | 80 ± 3.6 nM | 
41 | O=C(NCc1nccs1)C(=O)[C@@H](Cc1ccccc1)NC(=O)C1CC1C(=O)NC1CC(F)(F)C1 (some centres unmarked) [Compound 555] | 477.3 ± 4.1 nM | 
42 | C[C@@H](NC(=O)COc1ccccc1F)C(=O)N[C@H](Cc1ccccc1)C(=O)C(=O)NCc1ccccn1 [Compound 70] | 22.9 ± 0.3 nM | 

Row | SMILES | IC50 (values in nM) | IC50 (values given in μM)
43 | O=C(NCc1ccccn1)C(=O)[C@@H](Cc1ccccc1)NC(=O)[C@@H](Cc1ccccc1)NC(=O)[C@H]1CC[C@H](C(F)(F)F)CC1 [Compound 216] | 16.3 ± 0.4 nM | 
44 | C[C@@H](NC(=O)c1ccc(F)cc1)C(=O)N[C@H](Cc1ccccc1)C(=O)C(=O)NCc1ccc(Cl)cn1 [Compound 59] | 26.6 ± 1.8 nM | 
45 | C[C@@H](OCc1cccc(F)c1)C(=O)N[C@H](Cc1ccccc1)C(=O)C(=O)NCc1ccccn1 [Compound 7] | 28.5 ± 0.9 nM | 
46 | O=C(NCc1ccccn1)C(=O)[C@@H](Cc1ccccc1)NC(=O)[C@H]1CC2CCCCC2N1C(=O)N1CCC(F)(F)CC1 (some centres unmarked) [Compound 309] | 19.4 nM | 
47 | O=C(NCc1ccccn1)C(=O)[C@@H](Cc1ccccc1)NC(=O)[C@@H]1C[C@H]2C[C@H]2N1C(=O)C1CCC(F)(F)CC1 [Compound 268] | 296 ± 3.8 nM | 
48 | O=C(NCc1ccccn1)C(=O)[C@@H](Cc1ccccc1)NC(=O)[C@H]1Cc2ccccc2CN1C(=O)OC1CCC(F)(F)CC1 [Compound 312] | 14.5 ± 0.1 nM | 
49 | C[C@@H](NC(=O)C1CCC(F)(F)CC1)C(=O)N[C@H](Cc1ccccc1)C(=O)C(=O)NCc1ncccn1 [Compound 337] | 87.9 ± 14.6 nM | 
50 | CC(Oc1ccc(C(F)(F)F)cc1)C(=O)N[C@H](C)C(=O)N[C@H](Cc1ccccc1)C(=O)C(=O)NCc1ccccn1 (some centres unmarked) [Compound 96] | 20.2 ± 0.7 nM | 
51 | C[C@@H](NC(=O)C1CCC(F)(F)CC1)C(=O)N[C@H](Cc1ccccc1)C(=O)C(=O)NCc1c[nH]cn1 [Compound 346] |  | > 2500 nM
52 | COc1ccc(CO[C@H](C)C(=O)N[C@H](Cc2ccccc2)C(=O)C(=O)NCc2ccccn2)cc1F [Compound 16] | 18.9 ± 1.7 nM | 
53 | C[C@@H](NC(=O)[C@H]1CC[C@@H](NC(=O)OC(C)(C)C)CC1)C(=O)N[C@H](Cc1ccccc1)C(=O)C(=O)NCc1ccccn1 [Compound 133] | 198 ± 9.6 nM | 
54 | O=C(CNC(=O)C1CCC(F)(F)C1)N[C@H](Cc1ccccc1)C(=O)C(=O)NCc1cscn1 (some centres unmarked) [Compound 429] | 33.8 ± 1 nM | 
55 | COC[C@@H](NC(=O)C1CCCC(F)(F)C1)C(=O)N[C@H](Cc1ccccc1)C(=O)C(=O)NCc1ncsn1 (some centres unmarked) [Compound 564] | 774 ± 8.8 nM | 
56 | CC(C)[C@@H](OCc1ccc(F)cc1)C(=O)N[C@H](Cc1ccccc1)C(=O)C(=O)NCc1ccccn1 [Compound 26] | 13.9 ± 0.2 nM | 
57 | C[C@@H](NC(=O)C1CCCCCC1)C(=O)N[C@H](Cc1ccccc1)C(=O)C(=O)NCc1nccs1 [Compound 370] | 14.8 ± 0.7 nM | 
58 | O=C(NCc1ccccn1)C(=O)[C@@H](Cc1ccccc1)NC(=O)C1[C@H]2CCC[C@H]2CN1C(=O)c1cc2cc(Cl)ccc2o1 (some centres unmarked) [Compound 256] | 20.5 ± 1.7 nM | 
59 | COC[C@@H](NC(=O)N1CCCC(F)(F)C1)C(=O)N[C@H](Cc1ccccc1)C(=O)C(=O)NCc1nccs1 [Compound 548] | 410.4 ± 1 nM | 
60 | O=C(NCc1ccccn1)C(=O)[C@@H](Cc1ccccc1)NC(=O)C12CC(CN1C(=O)C1CCC(F)(F)CC1)C2 [Compound 274] | 910.8 ± 6.5 nM | 
61 | CC(C)(NC(=O)NCC1CCC(F)(F)CC1)C(=O)N[C@H](Cc1ccccc1)C(=O)C(=O)NCc1ccccn1 [Compound 303] | 10.7 ± 1 nM | 
62 | O=C(NC1CCC(F)(F)CC1)NC1(C(=O)N[C@H](Cc2ccccc2)C(=O)C(=O)NCc2ccccn2)CC1 [Compound 299] | 15.7 ± 0.1 nM | 

Source: US20250064789A1, “KETOAMIDE DERIVATIVES AND PHARMACEUTICAL USES THEREOF” (priority 2022, published 2025)
